Test results as given in patent US7763626B2, “Compositions and method for enhancing the therapeutic activity of opiods in treatment of pain” (Trustees of Dartmouth College, priority 2004, dated 2010).

How the values were obtained:
GLT-1 = experiment: Immunohistochemical assessment of glutamate transporters in spinal cord; assay type: in vivo, rat; settings: twelve days after L5 spinal nerve transection; propentofylline 10 μg i.t. daily
Experimental: (§1) Experiments were performed to determine how propentofylline-induced suppression of glial activation contribute to reduced behavioral hypersensitivity after nerve injury. In a preventative paradigm, 10 μg of propentofylline (Sigma) to male Sprague-Dawley rats in 40 μl of sterile saline, or saline vehicle alone was administered intrathecally (i.t.) by lumbar puncture at the L4/5 level under brief halothane anesthesia (n=6-8/group). Treatment began one hour prior to L5 spinal nerve transection and continued daily in the evening until day 4 or 12 post-transection. Rats received either an L5 spinal nerve transection or sham surgery on day 0. The development of mechanical allodynia was monitored as described above in the morning at approximately 15 hours post-propentofylline or saline injection. […]
(§2) For assessment of GFAP, GLT-1 and GLAST immunoreactivity, a separate group of animals (n=4/treatment) were anesthetized and transcardially perfused with 0.1 M PBS (phosphate-buffered saline), pH 7.4, followed by 4% paraformaldehyde in PBS on day 12 post-L5 spinal nerve transection. […] The sections were examined with an Olympus fluorescence microscope, and images were captured with a Q-Fire cooled camera. […]

GLAST = experiment: as above; assay type: in vivo, rat; settings: day 12 after L5 spinal nerve transection; propentofylline 10 μg i.t. daily
Experimental: as §1, §2

TNF-α mRNA = experiment: RNase protection assay, cytokine mRNA at L5 lumbar spinal cord; settings: propentofylline 10 micrograms intrathecally for 5 days during induction of morphine tolerance
Experimental: After behavioral testing for reactions to the combined treatment, rats were sacrificed and decapitated. An 18-gauge needle was inserted into the caudal end of the vertebral column and the spinal cord was expelled with ice-cold phosphate-buffered saline. The spinal cord was frozen immediately on dry ice and stored at −80° C. until homogenization. The L5 lumbar spinal cord was isolated from the intact frozen cord at the time of mRNA and protein quantification. Total RNA was isolated from the L5 spinal cord by the TRIzol extraction method (Invitrogen Corporation, Carlsbad, Calif).
Assessment of the temporal cytokine mRNA expression in the L5 lumber spinal cord was performed using a Ribonuclease Protection Assay technique. A Multiprobe RPAse kit was used (Pharmingen, San Diego, Calif.). […] Quantitative image analysis was employed to compare mRNA levels based on band intensities for each cytokine. The intensity of each band was measured using image analysis software and assigned an arbitrary unit based on the measured intensity levels. The value for the normalized quantity for each band was obtained by dividing by the L32 house-keeping gene control. Individual mRNA concentration was calculated as the ratio of the expression compared with saline-treated animals in which normal values were weighted as 1.

Male Sprague-Dawley rats = experiment: L5 spinal nerve transection model, mechanical allodynia; assay type: in vivo, rat
Experimental: as §1
Mechanical sensitivity was measured as the frequency of foot withdrawals elicited by a defined mechanical stimulus. […]
In blinded testing, rats were subjected to sequential series of 10 tactile stimulations to the dorsal surface of the ipsilateral hindpaw using […] von Frey filaments (Stoelting Co., WoodDale, Ill.) sequentially. The number of foot withdrawals to this normally non-noxious stimulus determined mechanical allodynia. Mechanical sensitivity was assessed by recording the total number of responses elicited during three successive trials separated by at least 10 minutes. […]

GFAP mRNA = experiment: Real-time PCR of GFAP mRNA at L5 lumbar spinal cord; assay type: in vivo, rat
Experimental: Total RNA was treated with DNase I (Ambion, Austin, Tex.) to remove DNA contamination before cDNA synthesis. The reverse transcription (RT) was carried out in a 100 μl total reaction volume containing RT buffer, dNTPs, multiscribe reverse transcriptase, RNase-free water and 10 μg of DNase-treated total RNA. The RT reaction was carried out at 25° C. for 10 minutes, 37° C. for 120 minutes, and 95° C. for 5 minutes. Real-time PCR analysis was performed using gene-specific primers and probes that were designed and blasted against GENBANK to confirm their species and gene specificity. […] The real-time PCR reactions were carried out using Platinum Taq DNA polymerase, 20 mM Tris HCl (pH 8.4), 50 mM KCl, 3 mM MgCl2, 200 μM dGTP, dCTP, and dATP, 400 μM of dUTP and 1 U uracyl DNA glycosylase (UDG), 900 nM forward and reverse primers, 300 nM TaqMan probe, and 10-fold dilution of cDNA (50 ng) from the RT step. Primers and probes for glyceraldehyde-3-phosphate (GADPH), GFAP and Mac-1 were obtained form Applied Biosystems (LaJolla, Calif.). The relative standard curves generated by plotting the threshold value versus the log of the amount of total cDNA added to the reaction (1-10000 pg) were used to compare the relative amount of target genes from control and chronic morphine-treated animals.

CCCn1cnc2c1c(=O)n(CCCCC(C)=O)c(=O)n2C [propentofylline]
GLT-1 immunoreactivity, ipsilateral versus contralateral dorsal horns (GLT-1): no qualitative difference
GLAST immunoreactivity on the ipsilateral side (GLAST): did not enhance
morphine-induced mRNA upregulation for TNF-α (TNF-α mRNA): significantly attenuated
development of mechanical allodynia after L5 spinal nerve transection (Male Sprague-Dawley rats; 10 μg i.t. daily from one hour prior to transection, 12 g Von Frey filament, all time points, vs L5 saline rats): robustly inhibited
mechanical allodynia after L5 spinal nerve transection compared with normal group (Male Sprague-Dawley rats; 10 μg i.t. daily, day 5, 7, 9 and 12): no longer discernable from the normal group
GFAP mRNA levels at the L5 lumbar spinal cord (GFAP mRNA; compared to saline-treated controls, morphine 10 mg/kg twice daily 5 days, or propentofylline 10 micrograms intrathecally 5 days in saline-treated rats): no effect
chronic morphine-induced upregulation of GFAP (GFAP mRNA; propentofylline during the induction phase of morphine tolerance): significantly attenuated
